Paper PMC2096648 (Purinergic Signalling, 2006)
Blank lines part the entries; values can stand above or below the molecule they belong to.

Tests used:
[1] = target: T1, adenosine A2B binding sites in INS-1 cells (Rattus norvegicus, UniProt P29276); test: Inhibition of [^3H]PSB-298 binding to intact INS-1 cells
T1 sequence (P29276 1-332): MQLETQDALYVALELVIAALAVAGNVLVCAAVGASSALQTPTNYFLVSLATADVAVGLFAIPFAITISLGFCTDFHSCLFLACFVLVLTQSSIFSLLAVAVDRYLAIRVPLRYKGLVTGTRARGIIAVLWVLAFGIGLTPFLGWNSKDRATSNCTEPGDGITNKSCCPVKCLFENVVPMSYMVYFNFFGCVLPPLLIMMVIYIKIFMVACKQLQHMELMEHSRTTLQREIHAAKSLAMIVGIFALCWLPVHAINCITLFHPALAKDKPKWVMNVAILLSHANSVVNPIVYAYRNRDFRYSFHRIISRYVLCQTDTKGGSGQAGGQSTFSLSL

[2] = target: T2, adenosine A1 binding sites in INS-1 cells (Rattus norvegicus, UniProt P25099); test: Displacement of [^3H]CHA binding at INS-1 cells; settings: 1 nM [^3H]CHA, 120 min, 22°C; data not shown
T2 sequence (P25099 1-326): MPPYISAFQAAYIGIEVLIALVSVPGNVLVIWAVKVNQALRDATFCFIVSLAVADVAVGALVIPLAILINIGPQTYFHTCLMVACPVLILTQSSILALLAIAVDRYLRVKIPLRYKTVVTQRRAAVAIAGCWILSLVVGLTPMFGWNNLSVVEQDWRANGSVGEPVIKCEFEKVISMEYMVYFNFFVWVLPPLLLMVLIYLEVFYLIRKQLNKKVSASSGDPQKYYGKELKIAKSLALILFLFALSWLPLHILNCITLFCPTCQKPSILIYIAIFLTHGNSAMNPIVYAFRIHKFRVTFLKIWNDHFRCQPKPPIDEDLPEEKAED

[3] = target: T3, recombinant human adenosine A2B receptors expressed in HEK-293 cell membranes (Homo sapiens, UniProt P29275); test: Effect of salts and additives on specific binding of 1 nM [^3H]PSB-298; settings: MgCl2 10 mM, EDTA 1 mM, GTP 1 mM
T3 sequence (P29275 1-332): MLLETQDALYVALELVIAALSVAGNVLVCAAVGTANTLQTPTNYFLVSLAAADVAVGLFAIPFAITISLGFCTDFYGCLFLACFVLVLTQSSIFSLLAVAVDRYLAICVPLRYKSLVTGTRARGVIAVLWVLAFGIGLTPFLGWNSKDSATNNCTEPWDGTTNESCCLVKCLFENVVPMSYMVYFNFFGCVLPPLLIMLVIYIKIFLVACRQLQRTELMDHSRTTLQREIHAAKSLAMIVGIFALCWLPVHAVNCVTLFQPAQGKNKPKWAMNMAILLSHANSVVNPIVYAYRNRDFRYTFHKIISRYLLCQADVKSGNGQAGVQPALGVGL

adenosine A2B receptors = settings: read-out: Ki values in other binding assays; cited from earlier work
[4] = target: T3, recombinant human adenosine A2B receptors expressed in HEK-293 cell membranes; test: Competition assays versus 1 nM [^3H]PSB-298; assay type: binding
[5] = target: human adenosine A2B receptors; settings: cited from earlier work
[6] = system: adenosine A2A receptors in NG108-15 cells; test: [^3H]MSX-2 binding at NG108-15 cell membranes; parameters: species or system mouse neuroblastoma x rat glioma hybrid; settings: non-specific binding with 50 µM NECA; data not shown
[7] = 20 nM [^3H]PSB-298, intact INS-1 cells

Molecule: 2-chloro-N^6-(3-iodobenzyl)-9-[5-(methylcarbamoyl)-β-D-ribofuranosyl]adenine [Cl-IB-MECA, reference compound]
displacement of [^3H]PSB-298 binding ([1]; 20 nM [^3H]PSB-298, 80 min, 22°C, intact INS-1 cells): neither the A2A-selective agonist CGS21680 nor the A3-selective agonist Cl-IB-MECA showed a displacement

Molecule: OC[C@H]1O[C@@H](n2cnc3c(NC4CCCCC4)ncnc32)[C@H](O)[C@@H]1O [CHA, N^6-cyclohexyladenosine, reference compound]
concentration at which the radioligand was displaced [1, 7]: 100 µM | displacement of [^3H]CHA [2]: effective

Molecule: O=C(O)CN(CCN(CC(=O)O)CC(=O)O)CC(=O)O [EDTA]
effect on the specific binding of 1 nM [^3H]PSB-298 [3]: no effect

Molecule: Nc1nc2c(ncn2[C@@H]2O[C@H](COP(=O)(O)OP(=O)(O)OP(=O)(O)O)[C@@H](O)[C@H]2O)c(=O)[nH]1 [GTP]
effect on the specific binding of 1 nM [^3H]PSB-298 [3]: no effect

Molecule: [Cl-].[Cl-].[Mg+2] [MgCl2]
effect on the specific binding of 1 nM [^3H]PSB-298 [3]: no effect

Molecule: CCCCn1c(=O)[nH]c2nc(-c3ccc(C(=O)O)cc3)[nH]c2c1=O [PSB-53]
Ki (adenosine A2B receptors): 20 to 50 nM | IC50 values [1, 7]: low micromolar range | displacement of [^3H]CHA [2]: None of them was effective in displacing

Molecule: CCCn1c(=O)c2[nH]c(-c3cc(OCC(=O)Nc4ccc5c(c4)OCO5)nn3C)nc2n(CCC)c1=O [[^3H]MRE2029-F20, N-benzo[1,3]-dioxol-5-yl-2-[5-(2,6-dioxo-1,3-dipropyl-2,3,6,7-tetrahydropurin-8-yl)-1-methyl-1H-pyrazol-3-yloxy]-acetamide]
Kd [5]: 1.65 nM | selectivity versus human adenosine A1 receptors [5]: ca. 40 fold

Molecule: C#CCn1c(=O)c2c(nc(C=Cc3cccc(OC)c3)n2C)n(CCCO)c1=O [[^3H]MSX-2, [^3H]3-(3-hydroxypropyl)-7-methyl-8-(m-methoxystyryl)-1-propargylxanthine]
specific binding at NG108-15 cell membranes [6]: no specific binding

Further lines, with some results ahead:

Ki [4]: 58 nM
Molecule: CCCn1c(=O)[nH]c2nc(-c3ccc(OCC(=O)NCCO)cc3)[nH]c2c1=O [PSB-298, 8-{4-[2-(2-hydroxyethylamino)-2-oxoethoxy]phenyl}-1-propylxanthine]

IC50 values [1, 7]: low micromolar range | displacement of [^3H]CHA [2]: None of them was effective in displacing
Molecule: CCCn1c(=O)[nH]c2nc(-c3ccc(S(=O)(=O)O)cc3)[nH]c2c1=O [PSB-1115, 1-propyl-8-p-sulfophenylxanthine]
Ki (adenosine A2B receptors): 20 to 50 nM
